According to ChEMBL document CHEMBL5380859, “Bioactivity-Driven Synthesis of the Marine Natural Product Naamidine J and Its Derivatives as Potential Tumor Immunological Agents by Inhibiting Programmed Death-Ligand 1” (J Med Chem, 2023):
pIC50: −log10 of the molar value. Calls of active or inactive are those of the source. The calls are words filed in the database; no cut-off is given here.

Key:
RKO [1] = assay: Downregulation of PD-L1 expression level in human RKO cells at 10 uM incubated for 24 hrs by Western blot analysis; assay type: functional, cell-based
RKO [2] = assay: Cytotoxicity against human RKO cells assessed as reduction in cell viability after 24 hrs by CCK8 assay; assay type: functional, cell-based
RKO [3] = assay: Downregulation of PD-L1 expression level in human RKO cells assessed as turnover rate at 5 uM incubated for 12 hrs in presence of CHX by immunoblotting analysis; assay type: functional, cell-based
RKO [4] = assay: Downregulation of PD-L1 expression level in human RKO cells incubated for 24 hrs by Western blot analysis; assay type: functional, cell-based; conditions: dose 1-10 µM
[5] = target: Programmed cell death 1 ligand 1 (Homo sapiens) (UniProt Q9NZQ7); assay: Induction of PD-L1 degradation in human RKO cells at 5 uM in presence of MG132 incubated for 24 hrs by Western blot analysis; assay type: cell-based
[6] = target: Programmed cell death 1 ligand 1 (Homo sapiens) (UniProt Q9NZQ7); assay: Induction of PD-L1 degradation in human RKO cells at 5 uM in presence of 3-MA incubated for 24 hrs by Western blot analysis; assay type: cell-based
MC-38 [7] = assay: Antitumor activity against mouse MC38 cells implanted in C57BL/6J mouse assessed as as increase in ratio of CD8 positive T cells to CD4 positive T cells at 50 mg/kg, ip administered once daily for 16 days by flow cytometry analysis; assay type: functional, organism-based; conditions: time 16.0 day
RKO [8] = assay: Antitumor activity in human RKO cells cocultured with […] assessed as induction of T-cell mediated cell killing at 10 uM incubated for 24 hrs by crystal violet staining method; assay type: functional, cell-based
[9] = target: Programmed cell death 1 ligand 1 (Homo sapiens) (UniProt Q9NZQ7); assay: Induction of PD-L1 degradation in human RKO cells at 5 uM in presence of CQ incubated for 24 hrs by Western blot analysis; assay type: cell-based
MC-38 [10] = assay: Antitumor activity against mouse MC38 cells implanted in C57BL/6 mouse assessed as inhibition of tumor size at 50 mg/kg, ip administered once daily for 16 days; assay type: functional; conditions: MC-38, 384 h, time 16 day
MC-38 [11] = assay: Antitumor activity against mouse MC38 cells implanted in C57BL/6 mouse assessed as reduction in tumor growth at 50 mg/kg, ip administered once daily for 16 days; assay type: functional, organism-based; conditions: time 16.0 day
MC-38 [12] = assay: Antitumor activity against mouse MC38 cells implanted in C57BL/6 mouse assessed as reduction in tumor growth at 25 mg/kg, ip administered once daily for 16 days; assay type: functional, organism-based; conditions: time 16.0 day
RKO [13] = assay: Downregulation of PD-L1 expression level in human RKO cells at 1 to 10 uM by Western blot analysis; assay type: functional, cell-based; conditions: dose 1-10 µM, time 3-24 hrs, TDE = time-dependent effect
MC-38 [14] = assay: Antitumor activity against mouse MC38 cells implanted in C57BL/6J mouse assessed as increase in number of CD8 positive T cells at 50 mg/kg, ip administered once daily for 16 days by flow cytometry analysis; assay type: functional, organism-based; conditions: time 16.0 day
[15] = Toxicity in C57BL/6 mouse implanted with mouse MC38 cells assessed as change in body weight at 50 mg/kg, ip administered once daily for 16 days and measured every 2 days; assay type: organism-based, MC-38; conditions: in vivo, 384 h, time 16 day
RKO [16] = assay: Effect on PD-L1 mRNA level in human RKO cells at 1 to 10 uM by qRT-PCR analysis; assay type: functional, cell-based; conditions: dose 1-10 µM
MC-38 [17] = assay: Antitumor activity against mouse MC38 cells implanted in C57BL/6 mouse assessed as reduction in tumor weight at 50 mg/kg, ip administered once daily for 16 days and measured for every 2 days; assay type: functional, organism-based; conditions: time 16.0 day
MC-38 [18] = assay: Antitumor activity against mouse MC38 cells implanted in C57BL/6 mouse assessed as downregulation of FOXP3 expression at 50 mg/kg, ip administered once daily and measured after 16 days by immunohistochemistry analysis; assay type: functional, organism-based; conditions: time 16.0 day
MC-38 [19] = assay: Antitumor activity against mouse MC38 cells implanted in C57BL/6 mouse assessed as downregulation of PD-L1 expression at 50 mg/kg, ip administered once daily and measured after 16 days by immunohistochemistry analysis; assay type: functional, organism-based; conditions: time 16.0 day
MC-38 [20] = assay: Antitumor activity against mouse MC38 cells implanted in C57BL/6 mouse assessed as upregulation of CD3 expression at 50 mg/kg, ip administered once daily and measured after 16 days by immunohistochemistry analysis; assay type: functional, organism-based; conditions: time 16.0 day
MC-38 [21] = assay: Antitumor activity against mouse MC38 cells implanted in C57BL/6 mouse assessed as upregulation of cleaved caspase 3 at 50 mg/kg, ip administered once daily and measured after 16 days by immunohistochemistry analysis; assay type: functional, organism-based; conditions: time 16.0 day

Programmed cell death 1 ligand 1 (Homo sapiens), sequence (Q9NZQ7 whole entry): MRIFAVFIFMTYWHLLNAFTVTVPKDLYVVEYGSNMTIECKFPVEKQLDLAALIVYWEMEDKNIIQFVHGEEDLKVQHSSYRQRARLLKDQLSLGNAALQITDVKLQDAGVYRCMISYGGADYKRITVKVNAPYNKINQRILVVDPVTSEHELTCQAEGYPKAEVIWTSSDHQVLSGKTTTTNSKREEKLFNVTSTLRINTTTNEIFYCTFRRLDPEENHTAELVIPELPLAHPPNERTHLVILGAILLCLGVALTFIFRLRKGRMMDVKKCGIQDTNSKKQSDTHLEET

| SMILES | Activity (RKO [1]) | pIC50 (RKO [2]) | other results |
| --- | --- | --- | --- |
| CNC(=O)Nc1nc(Cc2ccc(OC)cc2)c(Cc2ccc(OC)c(OC)c2)n1C | Active | 4.62 |  |
| COc1ccc(Cc2nc(NC(=O)C3CC4(C3)CC(F)(F)C4)n(C)c2Cc2ccc(OC)c(OC)c2)cc1 |  | < 4.40 |  |
| COc1ccc(Cc2nc(NC(=O)c3ccc(NC(=O)OC(C)(C)C)cc3)n(C)c2Cc2ccc(OC)c(OC)c2)cc1 |  | 4.65 |  |
| CCCCC(=O)Nc1nc(Cc2ccc(OC)cc2)c(Cc2ccc(OC)c(OC)c2)n1C |  | < 4.40 |  |
| CCCCC(=O)Nc1cccc(C(=O)Nc2nc(Cc3ccc(OC)cc3)c(Cc3ccc(OC)c(OC)c3)n2C)c1 | Active | 5.28 |  |
| COc1ccc(Cc2nc(NC(=O)c3ccccc3)n(C)c2Cc2ccc(OC)c(OC)c2)cc1 |  | < 4.40 |  |
| COc1ccc(Cc2nc(NC(=O)c3cc(OC)cc(OC)c3)n(C)c2Cc2ccc(OC)c(OC)c2)cc1 |  | < 4.40 |  |
| COc1ccc(Cc2nc(NC(=O)c3cc(Br)ccc3O)n(C)c2Cc2ccc(OC)c(OC)c2)cc1 |  | 4.69 |  |
| COc1ccc(Cc2nc(NC(=O)c3sc(C)nc3C(F)(F)F)n(C)c2Cc2ccc(OC)c(OC)c2)cc1 | Active | 4.51 |  |
| COc1ccc(Cc2nc(NC(=O)C3CCOCC3)n(C)c2Cc2ccc(OC)c(OC)c2)cc1 | Active | 4.48 |  |
| COc1ccc(Cc2nc(NC(=O)c3cccc(NC(C)=O)c3)n(C)c2Cc2ccc(OC)c(OC)c2)cc1 |  | < 4.40 |  |
| COc1ccc(Cc2nc(NC(=O)c3cccc(N)c3)n(C)c2Cc2ccc(OC)c(OC)c2)cc1 |  | 4.70 |  |
| COc1ccc(Cc2nc(NC(=O)C3CCCCC3)n(C)c2Cc2ccc(OC)c(OC)c2)cc1 |  | < 4.40 |  |
| CNc1cccc(C(=O)Nc2nc(Cc3ccc(OC)cc3)c(Cc3ccc(OC)c(OC)c3)n2C)c1 |  | < 4.40 |  |
| COc1ccc(Cc2nc(NC(=O)c3cccc(NC(=O)OC(C)(C)C)c3)n(C)c2Cc2ccc(OC)c(OC)c2)cc1 | Active | 4.50 | Activity (RKO [3]): inactive; Activity (RKO [4]): Dose-Dependent Effect; Activity [5]: Active; Activity [6]: inactive; Activity (MC-38 [7]): Active; Activity (RKO [8]): Active; Activity [9]: Active; inhibition in vivo at 50 mg/kg (MC-38 [10]): 45%; Activity (MC-38 [11]): Active; Activity (MC-38 [12]): inactive; Activity (RKO [13]): Tde; Activity (MC-38 [14]): Active; Activity [15]: Non-Toxic; Activity (RKO [16]): inactive; Activity (MC-38 [17]): Active; Activity (MC-38 [18]): Active; Activity (MC-38 [19]): Active; Activity (MC-38 [20]): Active; Activity (MC-38 [21]): Active |
| COc1ccc(Cc2nc(NC(=O)c3ccc(C(C)=O)cc3)n(C)c2Cc2ccc(OC)c(OC)c2)cc1 |  | 4.57 |  |
| COc1ccc(Cc2nc(NC(=O)c3ccccc3O)n(C)c2Cc2ccc(OC)c(OC)c2)cc1 | Active | < 4.40 |  |
| COc1ccc(Cc2nc(NC(=O)c3ccco3)n(C)c2Cc2ccc(OC)c(OC)c2)cc1 | Active | 4.53 |  |
| COc1ccc(Cc2nc(NC(=O)c3ccc(F)cc3)n(C)c2Cc2ccc(OC)c(OC)c2)cc1 |  | < 4.40 |  |
| COc1ccc(Cc2nc(NC(=O)C34C[C@H]5C[C@H](C3)C[C@@H](C4)C5)n(C)c2Cc2ccc(OC)c(OC)c2)cc1 | Active | 4.59 |  |
| COc1ccc(Cc2nc(NC(=O)c3cccc(N(C)C)c3)n(C)c2Cc2ccc(OC)c(OC)c2)cc1 |  | < 4.40 |  |
| COc1ccc(Cc2nc(NC(=O)c3cccc(NC(=O)CN(C)C)c3)n(C)c2Cc2ccc(OC)c(OC)c2)cc1 | Active | 5.28 |  |
| COc1ccc(Cc2nc(NC(=O)c3ccc(N)cc3)n(C)c2Cc2ccc(OC)c(OC)c2)cc1 |  | 4.60 |  |
| COc1ccc(Cc2nc(NC(=O)c3ccc(OC(F)(F)F)cc3)n(C)c2Cc2ccc(OC)c(OC)c2)cc1 | Active | 4.62 |  |
| COC(=O)C12CCC(C(=O)Nc3nc(Cc4ccc(OC)cc4)c(Cc4ccc(OC)c(OC)c4)n3C)(CC1)CC2 |  | 4.84 |  |
